Experimental data published in patent US12065445B2, “CDK2 inhibitors and methods of using the same” (Cedilla Therapeutics, Inc., priority 2021, dated 2024).

Columns and labels:
[1] = test system: Kuramochi cells labeled with mApple-H2B; test: IncuCyte Cell Proliferation Assay; assay type: cell-based
Experimental: IncuCyte® assay was used to measure the effect of disclosed compounds on cell proliferation. Fluorescent microscopy images of cells were taken immediately after compound treatment and 72 hours later. Image analysis software was used to obtain cell counts as a function of compound concentration. Kuramochi cells labeled with mApple-H2B were seeded on 384-well assay-ready plates. Plates were placed in an IncuCyte® (Sartorius) and scanned at 0 and 72 hours. IncuCyte® software was used to count the number of fluorescent nuclei in each well. The fold change in cell count from 0 to 72 hours in wells treated with increasing compounds concentrations (10 pts, ½ log dilution, 20 μM top concentration) was normalized to DMSO control wells. The normalized cell counts were fit with dose response curves and a […] was calculated.

[2] = test system: Kuramochi cells; test: BrdU Cell Proliferation Assay; assay type: cell-based; conditions: read-out: BrdU - KURAMOCHI.1: IC50
Outline: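 Kuramochi cells were seeded at 2,000 cells/well, adhered overnight, then treated with a 10-point, 3-fold compound dilution series for 4 days. Proliferation was measured by a 1-hour BrdU pulse, anti-BrdU peroxidase colorimetric ELISA and 450 nm absorbance. Values were background-subtracted and normalized to DMSO wells.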

Structure (SMILES) | IC50 ([1]; 72 h) [µM] | IC50 [2] [µM] | IC50 ([1]; 72 hours) [µM]
CNC(=O)[C@@H](NC(=O)[C@@H]1CN(Cc2cncs2)CC12CN(C(=O)[C@H]1CC1(C)C)C2)[C@@H](C)OCc1ccccc1 [I-51A] | 5 to 20 | 5 to 10 | –
C[C@@H](OCc1ccccc1)[C@H](NC(=O)C1CN(C(=O)c2cnn(Cc3ccccc3)c2)CC12CN(C(=O)[C@H]1CC1(C)C)C2)C(=O)N1CCCCC1 (stereo partly drawn) [I-97, 6-(1-benzyl-1H-pyrazole-4-carbonyl)-N-((2S,3R)-3-(benzyloxy)-1-oxo-1-(piperidin-1-yl)butan-2-yl)-2-((S)-2,2-dimethylcyclopropanecarbonyl)-2,6-diazaspiro[3.4]octane-8-carboxamide] | 0.5 to 5 | 0.5 to 5 | –
C[C@@H]1C[C@H](C)CN(C(=O)[C@@H](NC(=O)C2CN(C(=O)c3cnn(Cc4ccccc4)c3)CC23CN(C(=O)[C@H]2CC2(C)C)C3)[C@@H](C)OCC2CCCCC2)C1 (some centres unmarked) [I-104] | 0.5 to 5 | ≤ 0.5 | –
C[C@@H](OCC1CCCCC1)[C@H](NC(=O)C1CN(C(=O)c2cnn(Cc3ccccc3)c2)CC12CN(C(=O)[C@H]1CC1(C)C)C2)C(=O)N1CCCC(CO)C1 (some centres unmarked) [I-105] | ≤ 0.5 | ≤ 0.5 | –
C[C@@H](OCC1CCCCC1)[C@H](NC(=O)C1CN(C(=O)c2cnn(Cc3ccccc3)c2)CC12CN(C(=O)[C@H]1CC1(C)C)C2)C(=O)N1CC2(CCC2)C1 (some centres unmarked) [I-107] | ≤ 0.5 | ≤ 0.5 | –
CNC(=O)[C@@H](NC(=O)[C@H]1CN(C(=O)c2cnn(Cc3ccccc3)c2)CC12CN(C(=O)[C@H]1CC1(C)C)C2)[C@@H](C)OCC1CCCC1 [I-110B] | 5 to 20 | 5 to 10 | –
C[C@@H](OCC1CCCCC1)[C@H](NC(=O)[C@@H]1CN(C(=O)c2cnn(C(F)(F)F)c2)CC12CN(C(=O)[C@H]1CC1(C)C)C2)C(=O)N1CCCCC1 [I-115] | 5 to 20 | > 10 | –
CC(=O)N1C[C@@H](C(=O)N[C@H](C(=O)N2CCCCC2)[C@@H](C)OCC2CCCCC2)C2(C1)CN(C(=O)[C@H]1CC1(C)C)C2 [I-118] | > 20 | > 10 | –
CNC(=O)[C@@H](NC(=O)[C@@H]1CN(C(=O)c2cnn(Cc3ccccc3)c2)CC12CN(C(=O)[C@H]1CC1(C)C)C2)[C@@H](C)OCC1CCCCC1 [I-123A, (S)-6-(1-benzyl-1H-pyrazole-4-carbonyl)-N-((2S,3R)-3-(cyclohexylmethoxy)-1-(methylamino)-1-oxobutan-2-yl)-2-((S)-2,2-dimethylcyclopropane-1-carbonyl)-2,6-diazaspiro[3.4]octane-8-carboxamide] | 0.5 to 5 | ≤ 0.5 | –
CNC(=O)[C@@H](NC(=O)[C@@H]1CN(C(=O)c2cnn(Cc3ccccc3)c2)CC12CN(C(=O)[C@H]1CC1(C)C)C2)[C@@H](C)OCCC1CCCCC1 [I-125A] | ≤ 0.5 | ≤ 0.5 | –
CNC(=O)[C@@H](NC(=O)[C@H]1CN(C(=O)c2cnn(Cc3ccccc3)c2)CC12CN(C(=O)[C@H]1CC1(C)C)C2)[C@@H](C)OCCC1CCCCC1 [I-125B] | 0.5 to 5 | 0.5 to 5 | –
CNC(=O)[C@@H](NC(=O)[C@@H]1CN(C(=O)c2cncs2)CC12CN(C(=O)[C@H]1CC1(C)C)C2)[C@@H](C)OCC1CCCCC1 [I-129A] | 0.5 to 5 | 0.5 to 5 | –
CNC(=O)[C@@H](NC(=O)[C@@H]1CN(C(=O)c2cnn(Cc3ccccc3)c2)CC12CN(C(=O)[C@H]1CC1(C)C)C2)[C@@H](C)OCC(C)(C)C [I-130A] | 5 to 20 | 5 to 10 | –
CO[C@H]1COCC[C@@H]1NC(=O)[C@@H]1CN(C(=O)c2cnn(Cc3ccccc3)c2)CC12CN(C(=O)[C@H]1CC1(C)C)C2 [I-131A] | > 20 | > 10 | –
C[C@@H](OCC1CCCCC1)[C@H](NC(=O)[C@@H]1CN(C(=O)c2cnn(CC(F)(F)F)c2)CC12CN(C(=O)[C@H]1CC1(C)C)C2)C(=O)N1CCCCC1 [I-132] | 0.5 to 5 | 0.5 to 5 | –
C[C@@H](OCC12CCC(CC1)OC2)[C@H](NC(=O)[C@@H]1CN(C(=O)c2cncs2)CC12CN(C(=O)[C@H]1CC1(C)C)C2)C(=O)N1CCC2(CC1)CC2 [I-458] | 0.5 to 5 | – | –

Structure (SMILES) | IC50 ([1]; 72 h) [µM] | IC50 [2] [µM] | IC50 ([1]; 72 hours) [µM]
[2H]C([2H])([2H])OC[C@H]1CCCN(C(=O)[C@@H](NC(=O)[C@@H]2CN(C(=O)c3cncs3)CC23CN(C(=O)C(C)(C)C2CC2)C3)[C@@H](C)OCC23CCC(CC2)OC3)C1 [I-459] | 5 to 20 | – | –
C[C@@H](OCC12CCC(CC1)OC2)[C@H](NC(=O)[C@@H]1CN(C(=O)c2cncs2)CC12CN(C(=O)[C@H]1CC1(C)C)C2)C(=O)N1CCC[C@H](COC(F)(F)F)C1 [I-460] | 0.5 to 5 | – | –
C[C@@H](OCC12CCC(CC1)OC2)[C@H](NC(=O)[C@@H]1CN(C(=O)c2cncs2)CC12CN(C(=O)[C@H]1CC1(C)C)C2)C(=O)N1CCC[C@H](COC(F)F)C1 [I-461] | 0.5 to 5 | – | –
COC[C@H]1CCCN(C(=O)[C@@H](NC(=O)[C@@H]2CN(C(=O)c3cncs3)CC23CN(C(=O)[C@H]2CC2(C)C)C3)[C@@H](C)O[C@@H](C)C2CCCCC2)C1 [I-467] | – | – | 0.5 to 5
C[C@@H](OCc1ccc(C(F)(F)F)cc1)[C@H](NC(=O)[C@@H]1CN(C(=O)c2cncs2)CC12CN(C(=O)[C@H]1CC1(C)C)C2)C(=O)N1C2CCC1COC2 [I-470] | 0.5 to 5 | – | –
C[C@@H](OCC12CCC(CC1)OC2)[C@H](NC(=O)[C@@H]1CN(C(=O)c2sc(Cl)nc2Cl)CC12CN(C(=O)C(C)(C)C1CC1)C2)C(C)(C)O [I-471] | > 20 | – | –
CNC(=O)[C@@H](NC(=O)[C@@H]1CN(C(=O)c2cnn(Cc3ccc(C(=O)O)cc3)c2)CC12CN(C(=O)[C@H]1CC1(C)C)C2)[C@@H](C)OCc1ccccc1 [I-476] | > 20 | – | –
C[C@@H](OCC1CCCCC1)[C@H](NC(=O)[C@@H]1CN(C(=O)c2cnn(Cc3ccccc3)c2)CC12CN(C(=O)[C@H]1CC1(C)C)C2)C(=O)O [I-477] | > 20 | – | –
C[C@@H](OCC1CCCCC1)[C@H](NC(=O)[C@@H]1CN(C(=O)c2cnn(Cc3ccccc3)c2)CC12CN(C(=O)[C@H]1CC1(C)C)C2)C(=O)NCCC(=O)OC(C)(C)C [I-478] | ≤ 0.5 | – | –
CC1(C)C[C@@H]1C(=O)N1CC2(CN(C(=O)c3cncs3)C[C@H]2C(=O)NC(c2cccc(C3CCCCC3)n2)C2CCOC2)C1 (some centres unmarked) [I-493] | 5 to 20 | – | –
CC1(C)C[C@@H]1C(=O)N1CC2(CN(C(=O)c3cncs3)C[C@H]2C(=O)NC(c2cccc(C3CCCCC3)n2)C2CCCO2)C1 (some centres unmarked) [I-495] | 0.5 to 5 | – | –
CC1(C)C[C@@H]1C(=O)N1CC2(CN(C(=O)c3cncs3)C[C@H]2C(=O)NC(c2cccc(C3CCOCC3)n2)C2CCCO2)C1 (some centres unmarked) [I-497] | > 20 | – | –
CNC(=O)[C@@H](NC(=O)C1(C)CN(C(=O)c2cnn(Cc3ccccc3)c2)CC12CN(C(=O)[C@H]1CC1(C)C)C2)[C@@H](C)OCc1ccccc1 (stereo partly drawn) [I-498, 6-(1-benzyl-1H-pyrazole-4-carbonyl)-N-((2S,3R)-3-(benzyloxy)-1-(methylamino)-1-oxobutan-2-yl)-2-((S)-2,2-dimethylcyclopropane-1-carbonyl)-8-methyl-2,6-diazaspiro[3.4]octane-8-carboxamide] | > 20 | – | –
CNC(=O)[C@@H](NC(=O)[C@]1(C)CN(C(=O)c2cnn(Cc3ccccc3)c2)CC12CN(C(=O)[C@H]1CC1(C)C)C2)[C@@H](C)OCC1CCCCC1 [I-499A] | > 20 | – | –
CNC(=O)[C@@H](NC(=O)[C@@]1(C)CN(C(=O)c2cnn(Cc3ccccc3)c2)CC12CN(C(=O)[C@H]1CC1(C)C)C2)[C@@H](C)OCC1CCCCC1 [I-499B] | > 20 | – | –
CNC(=O)[C@@H](NC(=O)C1(F)CN(C(=O)c2cnn(Cc3ccccc3)c2)CC12CN(C(=O)[C@H]1CC1(C)C)C2)[C@@H](C)OCC1CCCCC1 (some centres unmarked) [I-501] | 0.5 to 5 | – | –
